“And” between values parts separate entries of the source, which are not always exact repeats. Equal entries are not always repeated. Structures can show the parent of a compound that is named as a salt.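 Values below derive from 48-hour exposures of cells grown in 96-well plates, with endpoints linearly interpolated between the two concentrations bracketing the appropriate inhibition level. GI50: concentration for 50% inhibition of growth.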 The source made the active and inactive calls. Rule as the data show it: active = GI50 up to about 1.1 µM and inactive = higher.
Columns and labels:
Test in all cases: NCI anticancer screen, dose series, 48 h
COLO 205 = tested on: COLO 205
EKVX = tested on: EKVX
HOP-62 = tested on: HOP-62
KM12 = tested on: KM12
M19-MEL = tested on: M19-MEL
MOLT-4 = tested on: MOLT-4
Malme-3M = tested on: Malme-3M
NCI-H226 = tested on: NCI-H226
NCI-H460 = tested on: NCI-H460
RPMI-8226 = tested on: RPMI-8226
SF-539 = tested on: SF-539
SNB-75 = tested on: SNB-75
T47D = tested on: T47D
CCRF-CEM = tested on: CCRF-CEM
HL-60 = tested on: HL-60
IGROV-1 = tested on: IGROV-1
LOX IMVI = tested on: LOX IMVI
MCF7 = tested on: MCF7
MDA-MB-435 = tested on: MDA-MB-435
PC-3 = tested on: PC-3

| Compound | GI50 (COLO 205) | GI50 (EKVX) | GI50 (HOP-62) | GI50 (KM12) | GI50 (M19-MEL) | GI50 (MOLT-4) | GI50 (Malme-3M) | GI50 (NCI-H226) | GI50 (NCI-H460) | GI50 (RPMI-8226) | GI50 (SF-539) | GI50 (SNB-75) | GI50 (T47D) | GI50 (CCRF-CEM) | GI50 (HL-60) | GI50 (IGROV-1) | GI50 (LOX IMVI) | GI50 (MCF7) | GI50 (MDA-MB-435) | GI50 (PC-3) |
| --- | --- | --- | --- | --- | --- | --- | --- | --- | --- | --- | --- | --- | --- | --- | --- | --- | --- | --- | --- | --- |
| COC1C(O)CC(OC2CC(OC3CC(O[C@@H]4C(=O)c5c(cc6cc(OC7CC(OC8CC(O)C(O)C(C)O8)C(O)C(C)O7)c(C)c(O)c6c5O)C[C@H]4[C@H](OC)C(=O)[C@@H](O)[C@@H](C)O)OC(C)C3O)OC(C)C2O)OC1C (some centres undefined) | 0.0189 µM (active) | 0.034 µM (active) | < 0.012 µM (active) | 0.0168 µM (active) | 0.0109 µM (active) | < 0.0159 µM (active) | < 0.0126 µM (active) | < 0.104 µM (active) | < 0.01 µM (active) | < 0.01 µM (active) | < 0.0119 µM (active) | < 0.0331 µM (active) | < 0.01 µM (active) |  |  |  |  |  |  |  |
| O=C(Nc1ccc(Sc2ccc(/N=N/c3c(O)c(S(=O)(=O)O)cc4cc(S(=O)(=O)O)ccc34)cc2)cc1)c1ccc(/N=N/c2c(O)c(S(=O)(=O)O)cc3cc(S(=O)(=O)O)ccc23)cc1 | 15.9 µM (inactive) | 17.7 µM (inactive) | 88.1 µM (inactive) | 33 µM (inactive) | 19.5 µM (inactive) | 9.25 µM (inactive) | 15.5 µM (inactive) | 39.3 µM (inactive) | 14.5 µM (inactive) | 5.53 µM (inactive) | 45.8 µM (inactive) | > 100 µM (inactive) |  | 21.2 µM (inactive) | 6.97 µM (inactive) | 35.6 µM (inactive) | 18.5 µM (inactive) |  |  |  |
| Cc1cc(N(CCC#N)CCC#N)ccc1/C=C1N=C(/C=C\c2ccccc2)OC\1=O | > 100 µM (inactive) | > 100 µM (inactive) | > 100 µM (inactive) | > 100 µM (inactive) | > 100 µM (inactive) | > 100 µM (inactive) | > 100 µM (inactive) | > 100 µM (inactive) | > 100 µM (inactive) | > 100 µM (inactive) | > 100 µM (inactive) | > 100 µM (inactive) |  | > 100 µM (inactive) | > 100 µM (inactive) | > 100 µM (inactive) | > 100 µM (inactive) |  |  |  |
| O=C1CCC2(c3ccccc3)Nc3ccc(Cl)cc3N12 (centres undefined) | > 100 µM (inactive) | > 100 µM (inactive) | > 100 µM (inactive) | > 100 µM (inactive) | > 100 µM (inactive) | > 100 µM (inactive) | > 100 µM (inactive) | > 100 µM (inactive) | > 100 µM (inactive) | > 100 µM (inactive) | > 100 µM (inactive) | 37.7 µM (inactive) |  | > 100 µM (inactive) | > 100 µM (inactive) | > 100 µM (inactive) | > 100 µM (inactive) |  |  |  |
| COc1ccc2nc3cc(Cl)ccc3c(Nc3ccccc3-c3ccccc3Nc3c4ccc(Cl)cc4nc4ccc(OC)cc34)c2c1 | 32.6 µM (inactive) | 52 µM (inactive) | 55.7 µM (inactive) | 22.7 µM (inactive) | > 34.7 µM (inactive) | 3.13 µM (inactive) | 35.2 µM (inactive) | > 41.1 µM (inactive) | 33.6 µM (inactive) | 8.17 µM (inactive) | 24.2 µM (inactive) | 14.7 µM (inactive) | 13.1 µM (inactive) | 4.52 µM (inactive) | 2.66 µM (inactive) | 45.7 µM (inactive) | 18.2 µM (inactive) | 40.8 µM (inactive) | 8.32 µM (inactive) | 11.3 µM (inactive) |
| Oc1ccc(C2Oc3cc(O)cc4c3C2c2cc(O)cc3c2C(c2cc(O)cc5c2C4C(c2ccc(O)cc2)O5)C(c2ccc(O)cc2)O3)cc1 (centres undefined) | > 25 µM (inactive) | > 25 µM (inactive) | 16.5 µM (inactive) | 7.4 µM (inactive) | 10.4 µM (inactive) | 6.89 µM (inactive) | 5.7 µM (inactive) | 6.19 µM (inactive) | 12.6 µM (inactive) | 7.45 µM (inactive) | 5.58 µM (inactive) | 3.19 µM (inactive) |  | 5.78 µM (inactive) | 0.834 µM (active) |  | 7.05 µM (inactive) |  |  |  |
| CN(C)CCCN1c2ccccc2Sc2ccc(C(F)(F)F)cc21 [TRIFLUPROMAZINE HYDROCHLORIDE] | 16.3 µM (inactive) and 16.7 µM (inactive) | 17.6 µM (inactive) and 15.7 µM (inactive) |  | 17.2 µM (inactive) and 15.1 µM (inactive) | 17.5 µM (inactive) | 17.7 µM (inactive) | 16.4 µM (inactive) and 14.9 µM (inactive) |  | 16.4 µM (inactive) and 15 µM (inactive) | 21.2 µM (inactive) and 14.9 µM (inactive) | 15.2 µM (inactive) and 19.1 µM (inactive) | 12.1 µM (inactive) and 12.2 µM (inactive) | 14.6 µM (inactive) | 20.3 µM (inactive) and 16.1 µM (inactive) | 15.7 µM (inactive) and 12.7 µM (inactive) | 15.9 µM (inactive) and 15.6 µM (inactive) | 15.5 µM (inactive) and 13.9 µM (inactive) | 16.1 µM (inactive) | 15.8 µM (inactive) | 15.2 µM (inactive) |
